{
  "source": "paper PMC10257182",
  "about": "“Discovery of senolytics using machine learning” (Nature Communications, 2023)",
  "type_in_all_cases": "cell-based, human",
  "key": {"[1]": {"tested_on": "Na+/K+ ATPase pump (intracellular K+) in senescent IMR90 ER:RAS cells", "test": "Intracellular K+ determination with Asante staining, OIS", "experimental": "Cells were cultured for control and senescent phenotype and then treated with the senolytics oleandrin, ouabain and periplocin at 10 nM for 72 h. Asante (Asante Potassium Green-2 AM, abcam ab142806) was added to the culture 30 min before fixation, following manufacturer instructions. DAPI staining was done before image acquisition on Nikon TI2 microscope (20x). Image analysis was performed using ImageJ 1.53k for setting intensity threshold and measuring mean intensity."}, "[2]": {"tested_on": "control IMR90 ER:STOP cells", "test": "Cell survival assay using crystal violet staining, OIS, control cells", "conditions": "FIG 4B, ER:STOP cells", "experimental": "Equal numbers of control and senescent cells were plated at high density on multiwell plates just before senolytic treatment addition. After treatment, cells were fixed on 0.5% glutaraldehyde (Sigma) and then dried at RT overnight. Then, wells were stained with crystal violet solution for 3 h, washed and dried. Once they were completely dry, the plates were scanned for records. Quantification was performed extracting the staining with 1% acetic acid and measuring the final solution by absorbance at 595 nm."}, "[3]": {"tested_on": "non-senescent control IMR90 ER:RAS cells", "test": "Nuclei count (Hoechst, high content imaging) senolytic assay, OIS model, non-senescent control cells", "conditions": "Homo sapiens", "how_it_was_run": "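IMR90 ER:RAS (p14), ±4-OHT 100 nM; cpd 10 nM–10 μM, 10-pt […], 72 h, n=3. Fix formaldehyde, Triton X-100, Hoechst 2 μg/ml final. Readout: imaged nuclei count vs untreated; ouabain positive control.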"}, "[4]": {"tested_on": "proliferating IMR90 cells", "test": "BrdU incorporation proliferation assay", "experimental": "5-bromo-2′-deoxyuridine (BrdU) incorporation was used to measure the number of cells actively replicating DNA. Cells were incubated with 10 μM BrdU (85811, Sigma) for 18 h. After that, cells were fixed with 4% Paraformaldehyde, permeabilised, blocked and then stained for immunofluorescence using BrdU primary antibody (555627 BD Pharmigen), Alexa fluor secondary for detection, and DAPI staining for cell counting. Acquisition was done with a Nikon TI2 microscope and analysis was performed with ImageJ for cell counting."}},
  "note": "Where “and” joins values, the source holds several entries; their conditions need not be identical. Equal entries are not always repeated. Where two headings read alike, the source gives them in different places.",
  "data": [
    {"compound": "CO[C@H]1C[C@H](O[C@H]2CC[C@@]3(C)[C@H](CC[C@@H]4[C@@H]3CC[C@]3(C)[C@@H](C5=CC(=O)OC5)[C@@H](OC(C)=O)C[C@]43O)C2)O[C@@H](C)[C@@H]1O", "note": "[Oleandrin, oleandrin]", "values": [
      {"measurement": "Asante Mean intensity", "setting": "[1]; FIG 4E, ER:RAS cells, individual replicate values", "value": "67.9 and 72 and 68.8 and 66.6 and 77 and 61.9"},
      {"measurement": "Mean (Asante Mean intensity, Tukey test details)", "setting": "[1]; FIG 4E, ER:RAS cells, mean of n=7", "value": 68.87},
      {"measurement": "K+ intracellular concentration, in words", "setting": "[1]; OIS IMR90, 10 nM, 72 h", "value": "significantly reduced"},
      {"measurement": "% Cell Survival", "setting": "[2]; individual replicate values, ER:STOP DMSO = 100", "value": "89.1% and 95.2% and 73.8% and 89.4% and 107.6% and 89% and 95.8% and 77.8% and 100% and 72.7% and 87.5% and 82.7%"},
      {"measurement": "Mean (cell survival, Tukey test details)", "setting": "[2]; mean of n=12 as fraction of STOP DMSO = 1", "value": 0.8838},
      {"measurement": "viability at 10 µM", "setting": "[3]; IMR-90, 72 h, Control, log (dose) [M] -5, 72 h, mean n=3 (Fig 3C), read-out: Mean % Cell Survival", "value": 15, "unit": "%"},
      {"measurement": "viability at 4.677 µM", "setting": "[3]; IMR-90, 72 h, Control, log (dose) [M] -5.33, 72 h, mean n=3 (Fig 3C), read-out: Mean % Cell Survival", "value": 20, "unit": "%"},
      {"measurement": "viability at 2.188 µM", "setting": "[3]; IMR-90, 72 h, Control, log (dose) [M] -5.66, 72 h, mean n=3 (Fig 3C), read-out: Mean % Cell Survival", "value": 20.5, "unit": "%"},
      {"measurement": "viability at 1 µM", "setting": "[3]; IMR-90, 72 h, Control, log (dose) [M] -6, 72 h, mean n=3 (Fig 3C), read-out: Mean % Cell Survival", "value": 25.6, "unit": "%"},
      {"measurement": "viability at 0.4677 µM", "setting": "[3]; IMR-90, 72 h, Control, log (dose) [M] -6.33, 72 h, mean n=3 (Fig 3C), read-out: Mean % Cell Survival", "value": 24.8, "unit": "%"},
      {"measurement": "viability at 0.2188 µM", "setting": "[3]; IMR-90, 72 h, Control, log (dose) [M] -6.66, 72 h, mean n=3 (Fig 3C), read-out: Mean % Cell Survival", "value": 24.3, "unit": "%"},
      {"measurement": "viability at 0.1 µM", "setting": "[3]; IMR-90, 72 h, Control, log (dose) [M] -7, 72 h, mean n=3 (Fig 3C), read-out: Mean % Cell Survival", "value": 34.7, "unit": "%"},
      {"measurement": "viability at 0.04677 µM", "setting": "[3]; IMR-90, 72 h, Control, log (dose) [M] -7.33, 72 h, mean n=3 (Fig 3C), read-out: Mean % Cell Survival", "value": 53.1, "unit": "%"},
      {"measurement": "viability at 0.02188 µM", "setting": "[3]; IMR-90, 72 h, Control, log (dose) [M] -7.66, 72 h, mean n=3 (Fig 3C), read-out: Mean % Cell Survival", "value": 80.8, "unit": "%"},
      {"measurement": "viability at 0.01 µM", "setting": "[3]; IMR-90, 72 h, Control, log (dose) [M] -8, 72 h, mean n=3 (Fig 3C), read-out: Mean % Cell Survival", "value": 92.8, "unit": "%"},
      {"measurement": "viability at 4.677 µM", "setting": "[3]; IMR-90, control, log (dose) [M] -5.33, individual replicates (Fig 3D), read-out: % Cell Survival", "value": 20.6, "unit": "%"},
      {"measurement": "viability at 2.188 µM", "setting": "[3]; IMR-90, control, log (dose) [M] -5.66, individual replicates (Fig 3D), read-out: % Cell Survival", "value": 18.9, "unit": "%"},
      {"measurement": "viability at 1 µM", "setting": "[3]; IMR-90, control, log (dose) [M] -6, individual replicates (Fig 3D), read-out: % Cell Survival", "value": 22.9, "unit": "%"},
      {"measurement": "viability at 0.4677 µM", "setting": "[3]; IMR-90, control, log (dose) [M] -6.33, individual replicates (Fig 3D), read-out: % Cell Survival", "value": 19.9, "unit": "%"},
      {"measurement": "viability at 0.2188 µM", "setting": "[3]; IMR-90, control, log (dose) [M] -6.66, individual replicates (Fig 3D), read-out: % Cell Survival", "value": 22.4, "unit": "%"},
      {"measurement": "viability at 0.1 µM", "setting": "[3]; IMR-90, control, log (dose) [M] -7, individual replicates (Fig 3D), read-out: % Cell Survival", "value": 31.3, "unit": "%"},
      {"measurement": "viability at 0.04677 µM", "setting": "[3]; IMR-90, control, log (dose) [M] -7.33, individual replicates (Fig 3D), read-out: % Cell Survival", "value": 54.6, "unit": "%"},
      {"measurement": "viability at 0.02188 µM", "setting": "[3]; IMR-90, control, log (dose) [M] -7.66, individual replicates (Fig 3D), read-out: % Cell Survival", "value": 71, "unit": "%"},
      {"measurement": "viability at 0.01 µM", "setting": "[3]; IMR-90, control, log (dose) [M] -8, individual replicates (Fig 3D), read-out: % Cell Survival", "value": 82.4, "unit": "%"},
      {"measurement": "IC50", "setting": "[3]; IMR-90, OIS model, non-senescent IMR90 ER:RAS, nuclei count, 72 h", "value": 85, "unit": "nM"},
      {"measurement": "% BrdU positive cells, mean (Test details, Mean 2)", "setting": "[4]; IMR90 cells, n 4", "value": 69.23, "unit": "%"},
      {"measurement": "% BrdU positive cells", "setting": "[4]; IMR90 cells, single replicates (SUP FIG 9G)", "value": "69.38% and 67.43% and 69.89% and 70.23%"},
      {"measurement": "proliferation by BrdU incorporation, in words", "setting": "[4]; proliferating IMR90 cells, 10 nM", "value": "none of the cardiac glycosides induced unwanted changes in proliferation"}
    ]}
  ]
}
